Data as given in patent publication US9115093B2, “Substituted bicyclic dihydropyrimidinones and their use as inhibitors of neutrophil elastase activity” (Boehringer Ingelheim International GmbH, priority 2013, dated 2015).

Target: T1, neutrophil elastase (Homo sapiens, UniProt P08246)
T1 sequence (P08246 30-247 limits assumed): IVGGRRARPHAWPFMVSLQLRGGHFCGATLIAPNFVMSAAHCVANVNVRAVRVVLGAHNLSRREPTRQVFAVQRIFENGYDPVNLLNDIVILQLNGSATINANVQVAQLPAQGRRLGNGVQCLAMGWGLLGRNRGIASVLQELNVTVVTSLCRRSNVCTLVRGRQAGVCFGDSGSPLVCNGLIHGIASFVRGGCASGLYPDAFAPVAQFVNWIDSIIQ
Assay: Human Neutrophil Elastase Assay
Assay type: biochemical
Set-up: purchased Calbiochem 324681
Conditions: substrate MeOSuc-Ala-Ala-Pro-Val-AMC, pH 7.5, room temperature
Summary of the method: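 Readout: AMC fluorescence (ex 380, em 460 nm) after 60 min room-temperature reaction with 250 nM MeOSuc-AAPV-AMC, following 15 min compound–enzyme preincubation. Buffer: Tris/NaCl pH 7.5, 0.01% BSA.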

| IC50 | Compound |
| --- | --- |
| 47.6 nM | N#Cc1ccc(C2NC(=O)N(c3cccc(C(F)(F)F)c3)C3=C2C(=O)CC(c2ccccc2)C3)cc1 (stereo not shown) [Example 6, 4-(2,5-dioxo-7-phenyl-1-(3-(trifluoromethyl)phenyl)-1,2,3,4,5,6,7,8-octahydroquinazolin-4-yl)benzonitrile] |
| 4 nM | CS(=O)(=O)N1C(=O)N(c2cccc(C(F)(F)F)c2)C2=C(C(=O)CCC2)C1c1ccc(C#N)cc1 (stereo not shown) [Example 43, 4-(3-(Methylsulfonyl)-2,5-dioxo-1-(3-(trifluoromethyl)phenyl)-1,2,3,4,5,6,7,8-octahydroquinazolin-4-yl)benzonitrile] |
| 1.1 nM | CC(C)(O)CCNC(=O)N1C(=O)N(c2cccc(C(F)(F)F)c2)C2=C(C(=O)CCC2)C1c1ccc(C#N)cc1 (stereo not shown) [Example 70.16] |
| 54.1 nM | N#Cc1ccc(C2NC(=O)N(c3cccc(C(F)(F)F)c3)C3=C2C(=O)CCC3)cn1 (stereo not shown) [Example 16, 5-(2,5-dioxo-1-(3-(trifluoromethyl)phenyl)-1,2,3,4,5,6,7,8-octahydroquinazolin-4-yl)-picolinonitrile] |
| 1.3 nM | CCN1C(=O)N(c2cccc(C(F)(F)F)c2)C2=C(C(=O)CCC2)C1c1ccc(C#N)cc1S(C)(=O)=O (stereo not shown) [Example 58, 4-(3-Ethyl-2,5-dioxo-1-(3-(trifluoromethyl)phenyl)-1,2,3,4,5,6,7,8-octahydroquinazolin-4-yl)-3-(methylsulfonyl)benzonitrile] |
| 7.8 nM | Cn1cc(CNC(=O)CN2C(=O)N(c3cccc(C(F)(F)F)c3)C3=C(C(=O)CCC3)C2c2ccc(C#N)cc2)cn1 (stereo not shown) [Example 36.31] |
| < 1 nM | CN1CCC(NC(=O)N2C(=O)N(c3cccc(C(F)(F)F)c3)C3=C(C(=O)CCC3)C2c2ccc(C#N)cc2)C1=O (stereo not shown) [Example 39.15] |
| 19.4 nM | CCCCN1C(=O)N(c2cccc(C(F)(F)F)c2)C2=C(C(=O)CCC2)C1c1ccc(C#N)cc1 (stereo not shown) [Example 21, 4-(3-Butyl-1-(3-(trifluoromethyl)phenyl)-2,5-dioxo-1,2,3,4,5,6,7,8-octahydroquinazolin-4-yl)benzonitrile] |
| 34 nM | COc1cc(C#N)ccc1C1NC(=O)N(c2cccc(C(F)(F)F)c2)C2=C1C(=O)CCC2 (stereo not shown) [Example 53, 4-(2,5-Dioxo-1-(3-(trifluoromethyl)phenyl)-1,2,3,4,5,6,7,8-octahydroquinazolin-4-yl)-3-methoxybenzonitrile] |
| 8.6 nM | CN1CC(CNC(=O)CN2C(=O)N(c3cccc(C(F)(F)F)c3)C3=C(C(=O)CCC3)C2c2ccc(C#N)cc2)CC1=O (stereo not shown) [Example 36.59] |
| < 1 nM | N#Cc1ccc(C2C3=C(CCCC3=O)N(c3cccc(C(F)(F)F)c3)C(=O)N2C(=O)NC2CCS(=N)(=O)CC2)cc1 (stereo not shown) [Example 72, 4-(4-Cyanophenyl)-2,5-dioxo-N-(1-imino-1-oxo-hexahydro-1λ^6-thiopyran-4-yl)-1-(3-(trifluoromethyl)phenyl)-1,2,5,6,7,8-hexahydroquinazoline-3(4H)-carboxamide] |
| 9.5 nM | C[S+]([O-])CCNC(=O)CN1C(=O)N(c2cccc(C(F)(F)F)c2)C2=C(C(=O)CCC2)C1c1ccc(C#N)cc1 (stereo not shown) [Example 36.29] |
| 54.8 nM | COC1CCN(C(=O)N2C(=O)N(c3cccc(C(F)(F)F)c3)C3=C(C(=O)CCC3)C2c2ccc(C#N)cc2)C1 (stereo not shown) [Example 39.10] |
| 6.8 nM | N#Cc1ccc(C2C3=C(CCCC3=O)N(c3cccc(C(F)(F)F)c3)C(=O)N2CC(=O)NCC2CCOC2)cc1 (stereo not shown) [Example 36.22] |
| 2.1 nM | N#Cc1ccc(C2C3=C(CCCC3=O)N(c3cccc(C(F)(F)F)c3)C(=O)N2C(=O)NCC2(O)CCC2)cc1 (stereo not shown) [Example 70.13] |
| 13.7 nM | N#Cc1ccc(C2C3=C(CCCC3=O)N(c3cccc(C(F)(F)F)c3)C(=O)N2Cc2ccc(C(=O)O)o2)cc1 (stereo not shown) [Example 29, 5-((4-(4-Cyanophenyl)-2,5-dioxo-1-(3-(trifluoromethyl)phenyl)-1,2,5,6,7,8-hexahydroquinazolin-3(4H)-yl)methyl)furan-2-carboxylic acid] |
